Measured values taken from PMC6381024, “Probing Anti-inflammatory Properties Independent of NF-κB Through Conformational Constraint of Peptide-Based Interleukin-1 Receptor Biased Ligands” (Frontiers in Chemistry, 2019).
Entries after “also recorded” stand apart in the source; their conditions may differ.

Key:
IL-6 = experiment: qPCR of IL-1β-induced IL-6 expression in HEK-Blue IL-33/IL-1β cells; format: cell-based, human; design: key to qPCR IL-6 (heatmap grade of inhibition): 0: No effect; No effect 01234 Maximum inhibition/efficacy; No effect 01234 Maximum inhibition/efficacy; No effect 01234 Maximum inhibition/efficacy; 4: Maximum inhibition/efficacy; details: for qPCR IL-6 (heatmap grade of inhibition): HEK-Blue cells, peptide 10^-6 M or Kineret 1.0 mg/mL 30 min, then IL-1β 100 ng/mL 4 h (legend: overnight); for Suppression of IL-6 transcription: HEK blue cells, 10^-6 M pre-treatment, IL-1β stimulation
Protocol: HEK-Blue IL-33/IL-1β cells were purchased from InvivoGen (San Diego, CA) and used at passages under 15. HEK-Blue cells were cultured in DMEM growth medium supplemented with 10% serum, 50 U/mL penicillin, […] streptomycin, […] zeocin, and […] hygromycin. Cells were grown in regular conditions (37°C, 5% CO2). Cells were serum starved overnight and treated with 100 ng/mL IL-1β for 4 h. Cells were pre-incubated for 30 min with peptides 1, 5, or 6 (10^−6M) or Kineret (1.0 mg/mL) prior to the experiments to reach equilibrium (n = 4 each treatment). Cells were harvested and incubated for 5 min in RIBOzol (AMRESCO). RNA was extracted according to manufacturer's protocol and RNA concentration and integrity were measured with a NanoDrop 1,000 spectrophotometer. A total of 500 ng RNA was used to synthetize cDNA using iScript Reverse Transcription SuperMix (Bio-Rad, Hercules, CA). Quantitative gene expression analysis was performed on Stratagene MXPro3000 (Stratagene) with SYBR Green Master Mix (Bio-Rad). Gene expression levels were normalized to 18S universal primer (Ambion Life Technology, Burlington ON, Canada). Genes analyzed include IL1β, IL6, and PTGHS2 [Prostaglandin H synthetase 2 or cyclooxygenase-2 (COX-2)]. Data are representative of 3 experiments (each with n = 4 per treatment group).
Figure 8 The effects of peptides 1, 5, and 6 on the expression of pro-inflammatory genes. HEK-Blue cells were pre-treated with peptides 1, 5, and 6 as above and stimulated with IL-1β overnight. qPCR was performed on cell lysates using 18S rRNA as internal control. Graphs are sorted in columns by gene of interest (COX-2, IL-1β, or IL-6) and rows by peptide configuration [(3R) or (3S)]. Results are representative of an average of 3 independent experiments (each with n = 4 per treatment group) and are expressed as a fold-change of the non-stimulated control: ^*p < 0.05, ^**p < 0.01, ^***p < 0.001, ^****p < 0.0001 compared to group treated only with IL-1β. Treatment groups that are not labeled with asterisks are statistically non-significant compared to group treated only with IL-1β.

NF-κB = NF-κB QUANTI-Blue assay (secreted alkaline phosphatase reporter) in HEK-Blue IL-33/IL-1β cells; format: cell-based; design: key to Nf-κB (heatmap grade of inhibition): 0: No effect; No effect 01234 Maximum inhibition/efficacy; No effect 01234 Maximum inhibition/efficacy; No effect 01234 Maximum inhibition/efficacy; 4: Maximum inhibition/efficacy; details: for Nf-κB (heatmap grade of inhibition): HEK-Blue cells, peptide 10^-6 M or Kineret 1.0 mg/mL 30 min, then IL-1β 100 ng/mL 4 h, QUANTI-Blue
Protocol: HEK-Blue IL-33/IL-1β cells (InvivoGen) were pretreated with peptides 1, 5, or 6 (10^−6M) or Kineret (1.0 mg/mL) for 30 min, followed by treatment with a constant concentration of IL-1β (100 ng/mL), and then incubated at 37°C for 4 h. Levels of secreted alkaline phosphatase in cell culture supernatant were determined using the QUANTI-Blue assay, according to the manufacturer's instructions (InvivoGen). Alkaline phosphatase activity was assessed by measuring the optical density (OD) at 620–655 nm with a micro plate reader (EnVision Multilabel reader; PerkinElmer, Waltham, MA). Data are representative of 3 experiments (each with n = 4 per treatment group).
Figure 6 The effects of peptides 1, 5, and 6 on IL-1-induced NF-κB signaling. NF-κB activation was quantified on HEK-blue cells using the QUANTI-blue assay, which spectroscopically detects secreted alkaline phosphatase, a reporter product from the transcription of the NF-κB gene. HEK-blue cells were pre-incubated with peptides 1, 5, and 6 or vehicle, then stimulated with IL-1β for 4 h. Data shown represents the average of 3 experiments, each with n = 4 per treatment group. ^****p < 0.0001 compared to group treated only with IL-1β. Treatment groups that are not labeled with asterisks are statistically non-significant compared to group treated only with IL-1β.

pregnant CD-1 mice = experiment: LPS-induced preterm birth (PTB) model in mice; format: in vivo, mouse; design: key to In vivo PTB (heatmap grade of efficacy): 0: No effect; No effect 01234 Maximum inhibition/efficacy; No effect 01234 Maximum inhibition/efficacy; No effect 01234 Maximum inhibition/efficacy; 4: Maximum inhibition/efficacy; details: for In vivo PTB (heatmap grade of efficacy): LPS 10 μg i.p. at G16.5, peptide 2 mg/kg/day s.c. every 12 h; for Activity in delaying labor in the PTB model: LPS i.p. at G16.5, 2 mg/kg/day s.c.
Protocol: Timed-pregnant CD-1 mice at 16.5 days of gestation (G16.5) were anesthetized with 2% isoflurane and received an intraperitoneal injection of LPS (n = 4 per group, a single dose of 10 μg) (Nadeau-Vallée et al., [2015], and Kakinuma et al., [1997]). A dosage of 2 mg/kg/day of peptide 1, 5, or 6 or vehicle was injected subcutaneously in the neck, every 12 h until delivery. On G16.5, a dose of 1 mg/kg was injected 30 min before stimulation with LPS (to allow distribution of drugs to target tissues) and 1 mg/kg was injected 12 h after stimulation (n = 4 each treatment). Mice delivery was assessed every hour until term (G19–G19.5). A mouse is considered as delivering prematurely if the first pup is delivered earlier than G18.5.
Figure 9 The effects of peptides 1, 5, and 6 on prevention of PTB. (A) Schematic of the CD-1 mouse PTB model. In brief, pregnant dams on day 16.5 of gestation (G16.5) were subcutaneously pretreated with peptides 1, 5, and 6 or vehicle, followed by LPS, and observed for delivery of pups. A dam was considered as delivering preterm if at least one pup was delivered before G18.5. (B) The rates of PTB in dams treated with peptides 1, 5, and 6 are grouped into (3R)- (left) and (3S)- (right) derivatives; n = 4–5 dams per treatment group.

Substance	qPCR IL-6 (heatmap grade of inhibition) (IL-6)	Nf-κB (heatmap grade of inhibition) (NF-κB)	Inhibition of IL-1-induced NF-κB signaling (NF-κB; HEK-blue cells, peptide 10^-6 M or Kineret 1.0 mg/mL, IL-1β 4 h, QUANTI-blue)	In vivo PTB (heatmap grade of efficacy) (pregnant CD-1 mice)	Activity in delaying labor in the PTB model (pregnant CD-1 mice)	Suppression of IL-6 transcription (IL-6)
Kineret: FDA-approved recombinant IL-1 receptor antagonist	4	4	inhibited NF-κB	0	–	–
H-D-Arg-D-Tyr-(S)-Agl-D-Val-D-Glu-D-Leu-D-Ala-NH2 [[(3S)-Agl^3]-1]	2	0	–	4	high potency; also recorded: best activity	–
H-D-Arg-D-Tyr-(3R,4R)-Hgl-D-Val-D-Glu-D-Leu-D-Ala-NH2 [[(3R,4R)-Hgl^3]-1]	4	0	–	0	–	–
H-D-Arg-D-Tyr-(3R,4S)-Hgl-D-Val-D-Glu-D-Leu-D-Ala-NH2 [[(3R,4S)-Hgl^3]-1]	4	0	–	4	best activity	–
H-D-Arg-D-Tyr-(S)-Agl-(S)-Val-D-Glu-D-Leu-D-Ala-NH2 [[(3S)-Agl^3-(S)-Val^4]-1]	1	0	–	0	–	ability to suppress the transcription of all three genes was lost
H-D-Arg-D-Tyr-(R)-Agl-(S)-Val-D-Glu-D-Leu-D-Ala-NH2 [[(3R)-Agl^3-(S)-Val^4]-1]	1	0	–	0	–	ability to suppress the transcription of all three genes was lost
H-D-Arg-D-Tyr-(R)-Agl-D-Val-D-Glu-D-Leu-D-Ala-NH2 [[(3R)-Agl^3]-1]	3	0	–	4	high potency; also recorded: best activity	–
H-D-Arg-D-Tyr-(3S,4R)-Hgl-D-Val-D-Glu-D-Leu-D-Ala-NH2 [[(3S,4R)-Hgl^3]-1]	4	0	–	4	best activity	–
H-D-Arg-D-Tyr-(3R,4R)-Hgl-(S)-Val-D-Glu-D-Leu-D-Ala-NH2 [[(3R,4R)-Hgl^3-(S)-Val^4]-1]	4	0	–	0	–	–
H-D-Arg-D-Tyr-D-Thr-D-Val-D-Glu-D-Leu-D-Ala-NH2 [Peptide 1]	4	0	–	4	–	strong suppression of transcription of all three genes
H-D-Arg-D-Tyr-(3R,4S)-Hgl-(S)-Val-D-Glu-D-Leu-D-Ala-NH2 [[(3R,4S)-Hgl^3-(S)-Val^4]-1]	2	0	–	2	–	–
